Results: patent US20260132123A1, “ABAD INHIBITOR COMPOUNDS” (UNIVERSITY COURT OF THE UNIVERSITY OF ST ANDREWS, priority 2021, published 2026)
pEC50, pIC50: −log10 of the molar value.

Columns and labels:
17β-HSD10 = target: T1, 17β-HSD10 (Homo sapiens, UniProt Q99714); experiment: 17β-HSD10 (ABAD) enzyme inhibition assay, NADH oxidation read at 340 nm (primary screen and dose response); type: biochemical; details: for pEC50 / Max. Effect (%) / Hill Slope / Max. Fit / Min. Fit: recombinant 17βHSD10 enzyme assay; for Hill Slope / Max. Fit / Min. Fit: curve fit
T1 construct: Histev (histidine tag with TEV site) (N, cleaved yes); made in house; host or cells: E. coli BL21-CodonPlus
T1 sequence (Q99714 1-261): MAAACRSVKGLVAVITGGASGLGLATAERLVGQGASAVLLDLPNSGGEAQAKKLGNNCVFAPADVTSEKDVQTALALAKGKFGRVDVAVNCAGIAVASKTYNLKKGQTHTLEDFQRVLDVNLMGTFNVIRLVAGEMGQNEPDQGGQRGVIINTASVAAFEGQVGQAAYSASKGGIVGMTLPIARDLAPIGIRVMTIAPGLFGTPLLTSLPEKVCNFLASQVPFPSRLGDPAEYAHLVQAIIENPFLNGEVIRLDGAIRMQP
Outline: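 Screening used a 35 min room-temperature endpoint A340 read after compound (10 μM) and enzyme (2.5 nM, E. coli-expressed, His-tag removed) preincubated 15 min, then 100 μM NADH plus acetoacetyl-CoA added. Dose-response runs tracked absorbance kinetically 45 min; buffer pH 7.4 Tris with BSA, DTT.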

mtsABAD HEK293 cells [1] = experiment: Alamar Blue cell viability assay; type: cell-based, human; details: 50 μM compound
Description: Cell viability was assessed via fluorescence change using the commercially available Alamar Blue from ThermoFisher. HEK293 cells overexpressing mts17β-HSD10 were cultured in phenol-red free media (10% FBS, 1 mM sodium pyruvate, 100 units penicillin, 0.1 mg/mL streptomycin and 2 mM L-glutamine) and seeded at a density of 10,000 cells per well (100 μL, 96 well plates). […] Treated cells were then incubated at 37° C. and CO2 (5%) for 24 hours before the assay was performed as per the manufacturer's instructions. Fluorescence was measured at 530 nm excitation and 590 nm emission using a SpectraMaxM2e spectrophotometer.

mtsABAD HEK293 cells [2] = experiment: Lactate dehydrogenase (LDH) cytotoxicity assay; type: cell-based, human; details: 50 μM compound
Description: Cell cytotoxicity was assessed via the measurement of lactate dehydrogenase leakage into the culture medium using a commercially available kit from Pierce (Thermo Scientific cat no. 88953). This was carried out in accordance with the kit guidelines, with the activity of Lactate Dehydrogenase (LDH) being calculated from the change in absorbance at […] as NADH is reduced. HEK293 cells overexpressing mts17β-HSD10 were cultured in phenol-red free media (10% fetal bovine serum (FBS), 1 mM sodium pyruvate, 100 units penicillin, 0.1 mg/mL streptomycin and 2 mM L-glutamine) and seeded at a density of 10,000 cells per well (100 μL, 96 well plates). […] Treated cells were incubated at 37° C. and CO2 (5%) for 24 hours before the LDH assay was performed as per the manufacturer's instructions. Spontaneous control (water) and maximum control (lysis buffer) used in accordance with the kit guide. Absorbance was measured at 490 nm and 680 nm using a SpectraMaxM2e spectrophotometer. The measured LDH activity was used to calculate % cytotoxicity using the following equation: […]

Compound | pEC50 (17β-HSD10) | Max. Effect (%) (17β-HSD10) | Hill Slope (17β-HSD10) | Max. Fit (17β-HSD10) | Min. Fit (17β-HSD10) | Alamar Blue % Viability (50 μM Dose) (mtsABAD HEK293 cells [1]) | LDH % Toxicity (50 μM Dose) (mtsABAD HEK293 cells [2]) | pIC50 (17β-HSD10; 17β-HSD10 inhibition, read-out: IC50)
Cc1ccsc1C(=O)N1CCC[C@H]1c1ccccc1-c1ccc(C(F)(F)F)cc1 [ESC1002314] | 6.24 | 99% | 1.2 | 97 | 0 | 87.10% | 5.98% | 
Cc1ccsc1C(=O)N1CCC[C@H]1c1ccccc1-c1ccc(OC(F)(F)F)cc1 [ESC1002315] | 5.94 | 95% | 1.1 | 97 | 0 | 84.77% | 5.91% | 
Cc1ccsc1C(=O)N1CCC[C@H]1c1ccccc1-c1ccc(C#N)cc1 [ESC1002316] | 6.56 | 101% | 0.93 | 100 | 0 | 80.39% | 3.69% | 
Cc1ccsc1C(=O)N1CCC[C@H]1c1ccccc1-c1ccc(C(=O)N(C)C)cc1 [ESC1002317] | 6.04 | 96% | 1 | 99 | 0 | 83.39% | 4.58% | 
Cc1ccsc1C(=O)N1CCC[C@H]1c1ccccc1-c1ccc(N2CCOCC2)cc1 [ESC1002318] | 5.72 | 91% | 1.1 | 98 | −1 | 85.76% | 2.55% | 
Cc1ccsc1C(=O)N1CCC[C@H]1c1ccccc1-c1ccc(S(C)(=O)=O)cc1 [ESC1002319] | 5.23 | 79% | 1 | 101 | −2 | 82.10% | 5.17% | 
Cc1ccsc1C(=O)N1CCC[C@H]1c1ccccc1-c1cccc(C(F)(F)F)c1 [ESC1002320] | 6.22 | 99% | 0.91 | 101 | −1 | 83.37% | 5.12% | 
Cc1ccsc1C(=O)N1CCC[C@H]1c1ccccc1-c1cccc(Cl)c1 [ESC1002321] | 6.58 | 105% | 0.92 | 102 | 4 | 84.52% | 5.98% | 
Cc1ccsc1C(=O)N1CCC[C@H]1c1ccccc1-c1cccc(S(C)(=O)=O)c1 [ESC1002322] | < 4.70 | 41% |  |  |  | 89.24% | 6.93% | 
Cc1ccccc1-c1ccccc1[C@@H]1CCCN1C(=O)c1sccc1C [ESC1002323] | 6.33 | 106% | 1.4 | 101 | 7 | 96.19% | 5.03% | 
Cc1ccsc1C(=O)N1CCC[C@H]1c1ccccc1-c1ccccc1Cl [ESC1002324] | 6.53 | 99% | 1 | 102 | 0 | 85.64% | 5.04% | 
COc1ccccc1-c1ccccc1[C@@H]1CCCN1C(=O)c1sccc1C [ESC1002325] | 6.51 | 98% | 0.87 | 100 | −11 | 89.12% | 4.36% | 
COc1cccc(-c2ccccc2[C@@H]2CCCN2C(=O)c2sccc2C)c1OC [ESC1002326] | 6.15 | 97% | 1.1 | 99 | 4 | 88.92% | 5.05% | 
Cc1ccsc1C(=O)N1CCC[C@H]1c1ccccc1-c1ccc(Cl)c(C(F)(F)F)c1 [ESC1002327] | 5.84 | 89% | 0.84 | 100 | −7 | 90.36% | 4.61% | 
CN(C)CCN(C(=O)c1ccccc1F)c1cccc(N(C)Cc2c[nH]cn2)c1 [ESC1002334, N-[2-(dimethylamino)ethyl]-2-fluoro-N-[3-[1H-imidazol-4-ylmethyl(methyl)amino]phenyl]benzamide] | < 4.70 | 23% |  |  |  | 92.96% | 5.17% | 
Cc1ccc(-c2ccccc2[C@@H]2CCCN2C(=O)c2sccc2C)cc1 [ESC1002337] | 6.68 | 102% | 1.3 | 99 | −7 | 85.13% | 4.10% | 
COc1cccc(-c2ccccc2[C@@H]2CCCN2C(=O)c2sccc2C)c1 [ESC1002338] | 6.72 | 101% | 1.1 | 100 | 0 | 82.98% | 4.64% | 6.72
Cc1ccsc1C(=O)N1CCC[C@H]1c1ccccc1-c1cccc(C)c1C [ESC1002339] | 6.28 | 99% | 1.4 | 97 | 7 | 82.52% | 4.39% | 
Cc1ccsc1C(=O)N1CCC[C@H]1c1ccccc1-c1ccc(Cl)cc1Cl [ESC1002340] | 6.20 | 105% | 1.6 | 96 | −7 | 94.26% | 5.33% | 
Cc1ccsc1C(=O)N1CCC[C@H]1c1ccccc1-c1cnn(C2CCOCC2)c1 [ESC1002341] | 5.79 | 91% | 0.87 | 102 | −6 | 96.72% | 5.13% | 
CN(Cc1c[nH]cn1)c1cccc(N(CC2CC2)C(=O)c2ccccc2F)c1 [ESC1002342, N-(cyclopropylmethyl)-2-fluoro-N-[3-[1H-imidazol-4-ylmethyl(methyl)amino]phenyl]benzamide] | 6.15 | 99% | 1.6 | 95 | −1 | 85.04% | 4.76% | 
